This is an account of results in patent US20250002475A1 (EPICS THERAPEUTICS, priority 2023, published 2025).

The subject of one experiment is Caov-3 cells. Put plainly: Caov-3 cellular viability assay (ATP-Lite, 72 h). Format: cell-based. Particulars: Homo sapiens, ATP-Lite luminescence, % viability relative to DMSO. The protocol: Caov-3 cell line was purchased from ATCC (ATCC® HTB-75™). Cells were isolated from the ovary of a ovarian cancer patient.
Caov-3 cells are cultured in DMEM (ATCC 30-2002) containing 10% heat-inactivated and 0.22 μm filtered FBS (Gibco 10270-106). The cells are seeded at 2.5E+4cell/cm^2 within the recommended subcultivation ratio of 1:3 to 1:6, as stated on the certificate of analysis issues by the provider of the cells.
Cellular viability assay: Caov-3 cells were plated (50 μL) in 96-well cell culture microplates (PS, F-Bottom black, Cellstar, Greiner 655086) at final concentration of 10000 cells/well. The compounds of the invention were dissolved in DMSO, and a titration curve was generated at 1000× final concentration. Compounds were then diluted 500× in tissue culture medium (RPMI-1640, 10% FBS). Then 50 μl of test compound were added to Caov-3 cells in a final DMSO concentration of 0.1%, final volume 100 μl. A gas permeable sealing membrane was applied to the plate to prevent evaporation (Breathe-Easy sealing membrane, Sigma Z380059-1PK) and cells were incubated for 72 h at 37° C., 5% CO2, 80% RH. After 72 h of treatment, the plates were taken out of the incubator and left for a few minutes at room temperature. 100 μl of the reconstituted reagent ATP-Lite One Step (Perkin Elmer, 6016739) were added to each well. The plates were shaken for 2 min at 700 rpm and placed in the dark for 10 minutes at room temperature before measurement of luminescence intensity with Envision instrument. The raw data were expressed in RLU. Results were expressed in % of viability relative to DMSO control and an IC50 was calculated based on the concentration-response profile of individual compounds.

Another experiment deals with Kasumi-1 cells. Put plainly: Kasumi-1 cellular viability assay (ATP-Lite, 72 h). It counts as cell-based. Particulars: Homo sapiens, ATP-Lite luminescence, % viability relative to DMSO. The method in brief:
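Viability was read by ATP-Lite One Step luminescence after 72 h compound treatment at 37 °C/5% CO2, normalised to DMSO control, with IC50 fitted from concentration-response. Cells were Kasumi-1 (AML FAB M2) at 15000 per well in RPMI-1640/10% FBS, 0.1% DMSO final.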

In experiment [1] the target is T1, recombinant METTL3/METTL14 complex (Homo sapiens, UniProt Q86U44).
T1 construct: purchased Active Motif 311970; host or cells: Sf9 cells
T1 sequence (Q86U44 whole entry): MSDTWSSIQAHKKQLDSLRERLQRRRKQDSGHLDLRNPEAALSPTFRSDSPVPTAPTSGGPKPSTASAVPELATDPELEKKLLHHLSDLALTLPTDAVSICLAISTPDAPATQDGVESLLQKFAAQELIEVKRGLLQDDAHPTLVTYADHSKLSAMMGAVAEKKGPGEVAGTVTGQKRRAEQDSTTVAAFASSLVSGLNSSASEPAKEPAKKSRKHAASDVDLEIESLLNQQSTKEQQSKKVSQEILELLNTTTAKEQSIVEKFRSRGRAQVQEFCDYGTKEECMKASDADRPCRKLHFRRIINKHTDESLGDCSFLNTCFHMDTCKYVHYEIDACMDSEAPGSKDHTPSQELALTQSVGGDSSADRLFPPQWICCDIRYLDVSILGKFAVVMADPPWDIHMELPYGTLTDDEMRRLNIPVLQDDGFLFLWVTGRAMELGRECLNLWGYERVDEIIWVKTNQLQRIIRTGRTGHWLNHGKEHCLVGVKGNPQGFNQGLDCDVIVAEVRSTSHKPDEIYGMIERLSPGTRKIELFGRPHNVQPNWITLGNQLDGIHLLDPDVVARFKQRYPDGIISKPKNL
T1 sequence (Q9HCE5 whole entry partner): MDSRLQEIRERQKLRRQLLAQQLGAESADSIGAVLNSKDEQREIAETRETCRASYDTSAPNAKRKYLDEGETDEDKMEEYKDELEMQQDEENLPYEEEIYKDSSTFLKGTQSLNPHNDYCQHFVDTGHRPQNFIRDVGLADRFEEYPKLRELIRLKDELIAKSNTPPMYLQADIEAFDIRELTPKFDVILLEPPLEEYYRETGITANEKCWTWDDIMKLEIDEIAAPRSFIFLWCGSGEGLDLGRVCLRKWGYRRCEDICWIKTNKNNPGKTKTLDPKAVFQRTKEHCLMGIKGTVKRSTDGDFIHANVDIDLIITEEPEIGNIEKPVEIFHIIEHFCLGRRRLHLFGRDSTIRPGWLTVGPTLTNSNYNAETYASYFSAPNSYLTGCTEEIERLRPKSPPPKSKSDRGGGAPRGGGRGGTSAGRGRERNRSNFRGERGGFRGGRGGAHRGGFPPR
Description: METTL3/14 Scintillation Proximity Assay (SPA), RNA methyltransferase activity. Format: biochemical. Particulars: 5.31 nM METTL3/14 complex, 250 nM RNA substrate, 1 μM 3H-SAM, 90 min; for compounds marked * best of the two separated forms.

As to `O=C(Nc1cc(=O)n2ccccc2n1)C1(c2ccc(N3CCC[C@@H](NCC4(F)CC4)C3)cn2)COC1` [Compound 330, (R)-3-(5-(3-(((1-fluorocyclopropyl)methyl)amino)piperidin-1-yl)pyridin-2-yl)-N-(4-oxo-4H-pyrido[1,2-a]pyrimidin-2-yl)oxetane-3-carboxamide], the half-maximal inhibitory concentration (IC50) was 0.5 to 5 µM with Caov-3 cells, 0.5 to 5 µM with Kasumi-1 cells and no more than 0.05 µM in experiment [1].
Regarding `FC(F)(F)C1(CN[C@@H]2CCCN(c3ccc(C4(n5cc(-c6cncc(C7CC7)c6)nn5)COC4)nc3)C2)CC1` [Compound 335, (R)-1-(6-(3-(4-(5-cyclopropylpyridin-3-yl)-1H-1,2,3-triazol-1-yl)oxetan-3-yl)pyridin-3-yl)-N-((1-(trifluoromethyl)cyclopropyl)methyl)piperidin-3-amine], the results for the IC50 (with Caov-3 cells; in the experiment on Kasumi-1 cells; in experiment [1]) were no more than 0.5 µM, 0.5 to 5 µM and no more than 0.05 µM, respectively.
With `CC(C)(c1ccc(N2CCC[C@@H](NCC3CC3)C2)cn1)c1nnc(-c2cncc(C3CC3)c2)s1` [Compound 363, (R)-N-(cyclopropylmethyl)-1-(6-(2-(5-(5-cyclopropylpyridin-3-yl)-1,3,4-thiadiazol-2-yl)propan-2-yl)pyridin-3-yl)piperidin-3-amine], the half-inhibitory concentration (IC50) is 0.5 to 5 µM in the experiment on Caov-3 cells, 0.5 to 5 µM with Kasumi-1 cells and no more than 0.05 µM in experiment [1].
With `CC(n1cc(-c2cncc(-n3ccnc3)c2)nn1)n1ccc(N2CCC[C@@H](NCC3CC3)C2)cc1=O` (single isomer, unassigned) [Compound 218], the IC50 with Caov-3 cells was 0.5 to 5 µM; in the experiment on Kasumi-1 cells it was greater than 5 µM; in experiment [1] it was no more than 0.05 µM.
`CC(c1ccc(N2CCC[C@@H](NCC3CCC3)C2)cn1)n1cc(-c2cncc(N3CCCC3)n2)nn1` (stereo partly drawn) [Compound 280, (3R)—N-(cyclobutylmethyl)-1-(6-(1-(4-(6-(pyrrolidin-1-yl)pyrazin-2-yl)-1H-1,2,3-triazol-1-yl)ethyl)pyridin-3-yl)piperidin-3-amine]: the IC50 is no more than 0.5 µM with Caov-3 cells, no more than 0.5 µM with Kasumi-1 cells and no more than 0.05 µM in experiment [1].
For the compound `CC(n1cc(-c2cncc(N3CC[C@@H](C)C3)n2)nn1)n1ccc(N2CCC[C@@H](NCC3CC3)C2)cc1=O` (single isomer, unassigned) [Compound 238], the IC50 with Caov-3 cells was no more than 0.5 µM; in the experiment with Kasumi-1 cells it was no more than 0.5 µM; in experiment [1], no more than 0.05 µM.
`COc1cncc(-c2cn(Cc3ccc(N4CCC[C@@H](NCC5CCC5)C4)nn3)cn2)c1` [Compound 081, (R)-N-(cyclobutylmethyl)-1-(6-((4-(5-methoxypyridin-3-yl)-1H-imidazol-1-yl)methyl)pyridazin-3-yl)piperidin-3-amine]: the IC50 was no more than 0.5 µM in the experiment on Caov-3 cells, 0.5 to 5 µM in the experiment on Kasumi-1 cells and no more than 0.05 µM in experiment [1].
As for `CC(C)(c1ccc(N2CCC[C@@H](NCC3CC3)C2)cn1)c1nnc(-c2cncc(N3CCCC3)n2)s1` [Compound 364, (R)-N-(cyclopropylmethyl)-1-(6-(2-(5-(6-(pyrrolidin-1-yl)pyrazin-2-yl)-1,3,4-thiadiazol-2-yl)propan-2-yl)pyridin-3-yl)piperidin-3-amine], the IC50 is no more than 0.5 µM in the experiment on Caov-3 cells, no more than 0.5 µM with Kasumi-1 cells and no more than 0.05 µM in experiment [1].
In the case of `c1cc(C2(n3cc(-c4cncc(N5CC6CC6C5)n4)nn3)COC2)ncc1N1CCC[C@@H](NCC2CC2)C1` (stereo partly drawn) [Compound 216, (3R)-1-(6-(3-(4-(6-(3-azabicyclo[3.1.0]hexan-3-yl)pyrazin-2-yl)-1H-1.2.3-triazol-1-yl)oxetan-3-yl)pyridin-3-yl)-N-(cyclopropylmethyl)piperidin-3-amine], the 50% inhibitory concentration (IC50) with Caov-3 cells was no more than 0.5 µM; in the experiment with Kasumi-1 cells, no more than 0.5 µM; in experiment [1] it was no more than 0.05 µM.
Take `CC(c1ccc(N2CCC[C@@H](NCC3CC3)C2)nn1)n1cc(-c2cncc(N3CCCC3)n2)nn1` (single isomer, unassigned) [Compound 309]: the figures for the IC50 (with Caov-3 cells; in the experiment on Kasumi-1 cells; in experiment [1]) were no more than 0.5 µM, no more than 0.5 µM and no more than 0.05 µM, respectively.
For the compound `c1cc(N2CCC[C@@H](NCC3CCC3)C2)ccc1Cn1cc(-c2cncc(N3CCCC3)n2)nn1` [Compound 287, (R)-N-(cyclobutylmethyl)-1-(4-((4-(6-(pyrrolidin-1-yl)pyrazin-2-yl)-1H-1,2,3-triazol-1-yl)methyl)phenyl)piperidin-3-amine], the IC50 is no more than 0.5 µM in the experiment with Caov-3 cells, no more than 0.5 µM in the experiment on Kasumi-1 cells and no more than 0.05 µM in experiment [1].
In the case of `COc1cncc(-c2nnc(Cn3ccc(N4CCC[C@@H](NCC5CCC5)C4)cc3=O)s2)c1` [Compound 077, (R)-4-(3-((cyclobutylmethyl)amino)piperidin-1-yl)-1-((5-(5-methoxypyridin-3-yl)-1,3,4-thiadiazol-2-yl)methyl)pyridin-2(1H)-one], the IC50 was 0.5 to 5 µM with Caov-3 cells, 0.5 to 5 µM with Kasumi-1 cells and no more than 0.05 µM in experiment [1].
Take `COc1cncc(-c2ncc(C(C)c3ccc(N4CCC[C@@H](NCC5CCC5)C4)cn3)s2)c1` (single isomer, unassigned) [Compound 181]: the half-inhibitory concentration (IC50) was 0.5 to 5 µM with Caov-3 cells, 0.5 to 5 µM in the experiment with Kasumi-1 cells and no more than 0.05 µM in experiment [1].
Turning to `CC(c1ccc(N2CCC[C@@H](NCC3CCC3)C2)nn1)n1cc(-c2cncc(N3CCCC3)n2)nn1` (single isomer, unassigned) [Compound 285], the concentration for half-maximal inhibition (IC50) was no more than 0.5 µM in the experiment on Caov-3 cells, no more than 0.5 µM in the experiment with Kasumi-1 cells and no more than 0.05 µM in experiment [1].
On to `CC(n1cc(-c2cncc(N(C)CC(F)(F)F)c2)nn1)n1ccc(N2CCC[C@@H](NCC3CCC3)C2)cc1=O` (single isomer, unassigned) [Compound 154], for which the half-inhibitory concentration (IC50) was no more than 0.5 µM with Caov-3 cells, no more than 0.5 µM in the experiment on Kasumi-1 cells and no more than 0.05 µM in experiment [1].
In the case of `O=C(Nc1cncc(N2CC3CC3C2)n1)C1(c2ccc(N3CCC[C@@H](NCC4CCC4)C3)cn2)COC1` (stereo partly drawn) [Compound 270, N-(6-(3-azabicyclo[3.1.0]hexan-3-yl)pyrazin-2-yl)-3-(5-((R)-3-((cyclobutylmethyl)amino)piperidin-1-yl)pyridin-2-yl)oxetane-3-carboxamide], the 50% inhibitory concentration (IC50) is no more than 0.5 µM in the experiment with Caov-3 cells, no more than 0.5 µM in the experiment with Kasumi-1 cells and no more than 0.05 µM in experiment [1].
On to `COc1cc(-c2cn(Cc3ccc(N4CCC[C@@H](NCC5CCC5)C4)nn3)nn2)c2cncn2c1` [Compound 013, (R)-N-(cyclobutylmethyl)-1-(6-((4-(6-methoxyimidazo[1,5-a]pyridin-8-yl)-1H-1,2,3-triazol-1-yl)methyl)pyridazin-3-yl)piperidin-3-amine], for which the half-inhibitory concentration (IC50) was no more than 0.5 µM with Caov-3 cells, 0.5 to 5 µM in the experiment on Kasumi-1 cells and no more than 0.05 µM in experiment [1].
For `COc1cncc(-c2cn(C(C)c3ccc(N4CCC[C@@H](NCC5CCC5)C4)nn3)cn2)c1` (stereo partly drawn) [Compound 182, (3R)—N-(cyclobutylmethyl)-1-(6-(1-(4-(5-methoxypyridin-3-yl)-1H-imidazol-1-yl)ethyl)pyridazin-3-yl)piperidin-3-amine], in that order: no more than 0.5 µM, 0.5 to 5 µM and no more than 0.05 µM.
Regarding `COc1cc(-c2cn(Cc3ccc(N4CCC[C@@H](NC5CCC5)C4)nn3)nn2)c2cn[nH]c2c1` [Compound 030, (R)-N-cyclobutyl-1-(6-((4-(6-methoxy-1H-indazol-4-yl)-1H-1,2,3-triazol-1-yl)methyl)pyridazin-3-yl)piperidin-3-amine], the IC50 in the experiment with Caov-3 cells is 0.5 to 5 µM; in the experiment with Kasumi-1 cells, 0.5 to 5 µM; in experiment [1], no more than 0.05 µM.
For the compound `c1ncc(-c2cn(C3(c4ccc(N5CCC[C@@H](NCC6CC6)C5)cn4)COC3)nn2)cc1CC1CC1` [Compound 346, (R)-N-(cyclopropylmethyl)-1-(6-(3-(4-(5-(cyclopropylmethyl)pyridin-3-yl)-1H-1,2,3-triazol-1-yl)oxetan-3-yl)pyridin-3-yl)piperdin-3-amine], the IC50 in the experiment on Caov-3 cells was no more than 0.5 µM; in the experiment on Kasumi-1 cells, no more than 0.5 µM; in experiment [1], no more than 0.05 µM.
In the case of `c1cc(C2(n3cnc(-c4cncc(N5CCCC5)n4)c3)COC2)ncc1N1CCC[C@@H](NCC2CC2)C1` [Compound 250, (R)-N-(cyclopropylmethyl)-1-(6-(3-(4-(6-(pyrrolidin-1-yl)pyrazin-2-yl)-1H-imidazol-1-yl)oxetan-3-yl)pyridin-3-yl)piperidin-3-amine], the IC50 with Caov-3 cells was no more than 0.5 µM; with Kasumi-1 cells it was no more than 0.5 µM; in experiment [1] it was no more than 0.05 µM.
Take `COc1cncc(-c2cn(C3(c4ccc(N5CCC[C@@H](NCC6CCC6)C5)cc4)COC3)nn2)c1` [Compound 134, (R)-N-(cyclobutylmethyl)-1-(4-(3-(4-(5-methoxypyridin-3-yl)-1H-1,2,3-triazol-1-yl)oxetan-3-yl)phenyl)piperidin-3-amine]: the IC50 is no more than 0.5 µM in the experiment on Caov-3 cells, no more than 0.5 µM in the experiment with Kasumi-1 cells and no more than 0.05 µM in experiment [1].

For orientation: IC50 means the midpoint of a concentration-inhibition curve.
